Data reported in PMC4666645 (PLoS Pathogens, 2015).
Structures can show the parent of a compound that is named as a salt.

Assays:
native C. elegans L-AChR = details: cited from earlier work
[1] = target: T1, Hco-L-AChR-2 (Hco-UNC-38, Hco-UNC-63, Hco-UNC-29.1) (Haemonchus contortus, UniProt D6MYE9+D6MYF3+D6MYF4); experiment: Two-electrode voltage-clamp on Xenopus oocytes expressing Hco-L-AChR-2; assay type: cell-based; details: for Response to agonist: 100 μM agonist
T1 sequence (D6MYF3 20-512): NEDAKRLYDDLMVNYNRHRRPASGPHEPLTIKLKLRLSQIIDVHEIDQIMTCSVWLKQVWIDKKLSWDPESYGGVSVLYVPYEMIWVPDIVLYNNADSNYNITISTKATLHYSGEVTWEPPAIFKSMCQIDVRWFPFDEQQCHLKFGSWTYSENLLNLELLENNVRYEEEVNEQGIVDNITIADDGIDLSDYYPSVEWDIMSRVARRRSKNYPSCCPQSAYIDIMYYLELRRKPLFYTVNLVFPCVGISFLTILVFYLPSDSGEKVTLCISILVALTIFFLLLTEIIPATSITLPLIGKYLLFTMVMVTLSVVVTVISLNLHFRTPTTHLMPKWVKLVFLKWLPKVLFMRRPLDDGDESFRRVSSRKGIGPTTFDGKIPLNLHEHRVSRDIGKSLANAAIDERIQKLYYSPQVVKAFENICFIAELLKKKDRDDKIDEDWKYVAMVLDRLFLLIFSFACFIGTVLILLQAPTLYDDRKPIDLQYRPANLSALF
T1 sequence (D6MYF4 22-504): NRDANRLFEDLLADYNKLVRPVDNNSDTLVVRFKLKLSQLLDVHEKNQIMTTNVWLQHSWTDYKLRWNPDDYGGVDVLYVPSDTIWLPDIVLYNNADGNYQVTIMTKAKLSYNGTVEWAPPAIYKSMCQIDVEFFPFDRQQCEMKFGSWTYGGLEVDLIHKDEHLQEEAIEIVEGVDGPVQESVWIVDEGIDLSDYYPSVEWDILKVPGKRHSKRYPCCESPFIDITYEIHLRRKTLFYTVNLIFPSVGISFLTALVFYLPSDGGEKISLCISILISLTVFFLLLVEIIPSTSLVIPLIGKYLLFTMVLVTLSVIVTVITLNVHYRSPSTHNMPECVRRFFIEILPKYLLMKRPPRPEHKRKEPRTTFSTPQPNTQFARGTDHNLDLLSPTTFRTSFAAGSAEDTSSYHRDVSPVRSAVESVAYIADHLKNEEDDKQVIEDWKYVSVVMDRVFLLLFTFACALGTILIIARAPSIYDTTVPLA
T1 sequence (D6MYE9 21-498): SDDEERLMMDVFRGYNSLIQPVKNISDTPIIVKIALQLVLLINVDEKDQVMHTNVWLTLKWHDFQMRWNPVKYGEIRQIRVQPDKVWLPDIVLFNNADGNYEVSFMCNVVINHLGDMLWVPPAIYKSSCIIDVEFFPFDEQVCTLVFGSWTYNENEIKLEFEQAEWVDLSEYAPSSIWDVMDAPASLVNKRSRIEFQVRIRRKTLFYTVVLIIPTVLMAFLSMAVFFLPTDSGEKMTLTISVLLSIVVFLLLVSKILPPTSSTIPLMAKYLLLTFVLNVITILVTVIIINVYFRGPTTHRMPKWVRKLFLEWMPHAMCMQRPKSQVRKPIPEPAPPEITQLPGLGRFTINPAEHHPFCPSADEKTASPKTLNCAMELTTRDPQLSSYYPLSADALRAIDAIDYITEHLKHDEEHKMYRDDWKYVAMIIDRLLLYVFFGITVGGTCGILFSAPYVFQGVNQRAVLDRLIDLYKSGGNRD
From the text: H. contortus and P. equorum acr-26 and acr-27 cDNAs were PCR-amplified using primers containing a restriction site in order to be sub-cloned into the expression vector pTB207 that is suitable for in vitro transcription. Primers are listed in S3 Table. The resulting plasmids were linearized with the NheI restriction enzyme (Fermantas) and used as templates for cRNA synthesis using the T7 mMessage mMachine kit (Ambion). Xenopus laevis ovaries were obtained from the University of Rennes, France (CRB Xenope) and defolliculated using 2 mg/ml collagenase type II (Gibco) in the incubation solution containing: 100 mM NaCl, 2 mM KCl, 1.8 mM CaCl2.2H2O, 1 mM MgCl2.6H2O, 5 mM HEPES, 2.5 mM C3H3NaO3, pH 7.5, supplemented with penicillin 100 U/mL and streptomycin 100 μg/mL). The oocytes were injected in the animal pole with a total volume of 36 nL of cRNA mix containing 50 ng/μL of each cRNA in RNase-free water using the Drummond nanoject II microinjector. Microinjected oocytes were kept at 20°C in incubation medium for 4 days to allow the receptors expression. Two-electrode voltage-clamp recordings were carried out using an Oocyte Clamp OC-725C amplifier (Warner instrument) in oocytes being voltage-clamped at -60mV. All agonist preparations were prepared with recording buffer (100 mM NaCl, 2.5 mM KCl, 1 mM CaCl2.2H2O, 5 mM HEPES, pH 7.3). Currents were recorded and analyzed using the pCLAMP 10.4 package (Molecular Devices).
Supplementary file ppat.1005267.s003.tif: S3 Fig Pharmacological profiles of Hco-L-AChR-1 and Hco-L-AChR-2. […] The bars indicate the time period of the agonist application. Functional expression of Hco-L-AChR-1 requires the co-expression of Hco-UNC-38; Hco-UNC-63; Hco-UNC-29.1 and Hco-ACR-8 AChR subunits with the ancillary proteins Hco-RIC-3.1; Hco-UNC-50 and Hco-UNC-74 whereas Hco-L-AChR-2 requires the co-expression of Hco-UNC-38; Hco-UNC-63 and Hco-UNC-29.1 AChR subunits with the ancillary proteins Hco-RIC-3.1; Hco-UNC-50 and Hco-UNC-74. (C) Scatter plot (mean ± SEM) of normalized currents elicited by 100 μM Mor on Hco-26/27, Hco-L-AChR-1 and Hco-L-AChR-2. […]

SMILES | EC50 (native C. elegans L-AChR) [µM] | EC50 [1] [µM] | Response to agonist [1]
c1ccc([C@H]2CN3CCSC3=N2)cc1 [Lev, (-)-tetramisole hydrochloride] | 10 | – | –
Cc1ccsc1/C=C/C1=NCCCN1C [Mor, morantel] | – | 3.2 ± 1.2 | less activated
CN1CCCN=C1/C=C/c1cccs1 [Pyr, pyrantel] | – | – | highly responsive
